The text below walks through data of patent US20160287563A1, “Cysteine Prodrugs” (Promentis Pharmaceuticals, Inc., priority 2011, published 2016).

Assay [1] concerns MAM-treated rats. Kind of assay: Attentional Set Shifting in MAM-treated rats. It counts as in vivo. From the text: (§1) This approach would have the added benefit of allowing assessing the impact of the compounds on cognitive changes that are thought to be relevant to schizophrenia. Thus, one would be able to test the hypothesis that the conditions that normalize glutathione are also conditions that are expected to improve cognitive performance.
Seven days prior to testing the animals will be food deprived to 85% of their free-feeding weight. Rats will be trained and tested on a four-arm cross maze (60×20×12 inches), constructed from Plexiglas with a removable arm to form a “T” configuration. On the first habituation day, the rat will be allowed to explore and consume up to 20 sugar pellets for 15 minutes. On the second day, the maze will be baited with 12 pellets for 15 minutes. On subsequent days, only one pellet will be placed at the end of each arm. This procedure will be continued daily until the rat consumes 16 sugar pellets in 15 minutes. Once achieved, the turn bias will be determined by forming a “T” configuration with the removable arm. A black-and-white piece of laminated paper for a visual cue will be placed on the floor in one of the arms. One pellet will be placed in each food well of the “T” arms. The rat will then be placed in the stem arm and allowed to choose between the two arms. […]

For assay [2], the system named is cultured cells. Kind of assay: Glutathione levels in cultured cells exposed to oxidative stress agents. It counts as cell-based. The note with it: iron 0-120 min exposure to 0-100 microM; ethacrynic acid 0-30 min exposure to 0-10 microM.
Source text: First, the experiment described in part 1A is repeated, except the harvested tissue is exposed to agents that induce oxidative stress which would prompt the cells to use/increase the synthesis of glutathione (the details are provided below).
Assay [3] can be described thus: Tissue glutathione in the MAM neurodevelopmental model of schizophrenia. The class given is in vivo. The settings on record: rats in the MAM neurodevelopmental model (MAM 22 mg/kg IP on gestational day 17). How it is done: as §1
Timed pregnant Sprauge-Dawley rats are given an acute injection of methylazoxymethanol (MAM; 22 mg/kg, IP) or vehicle on gestational day 17. Following vaginal birth, all mothers and offspring are left undisturbed until weaning on postnatal day 22.

As for `CC(=O)N[C@@H](CS)C(=O)O` [NAC, N-acetyl cysteine], the “Attentional Set Shifting deficit” value in assay [1] is recorded as “can be restored”. As to `C=C(CC)C(=O)c1ccc(OCC(=O)O)c(Cl)c1Cl` [ethacrynic acid], the “tissue levels of glutathione in cultured cells” value in assay [2] is on record as “decrease tissue levels of glutathione”.

Take `[Fe]` [iron]: in assay [2], the “tissue levels of glutathione in cultured cells” value is given as “decrease tissue levels of glutathione”.

On to `C[N+]([O-])=NCO` [MAM, methylazoxymethanol], for which the “tissue levels of glutathione” value in assay [3] was “modest reduction in tissue levels of glutathione”.
